From BigSolDB 2.1

CC1=CC(=O)c2ccccc2C1=O
solubility (mole fraction) (in benzene, 299.44 K): 0.109
solubility (mole fraction) (in benzene, 304.83 K): 0.13
solubility (mole fraction) (in benzene, 309.71 K): 0.152
solubility (mole fraction) (in benzene, 313.92 K): 0.174
solubility (mole fraction) (in benzene, 317.75 K): 0.197
solubility (mole fraction) (in benzene, 321.86 K): 0.224
solubility (mole fraction) (in benzene, 326.75 K): 0.262
solubility (mole fraction) (in benzene, 330.75 K): 0.297
solubility (mole fraction) (in benzene, 334.65 K): 0.334
solubility (mole fraction) (in benzene, 338.96 K): 0.379
solubility (mole fraction) (in ethylbenzene, 302.85 K): 0.0976
solubility (mole fraction) (in ethylbenzene, 309.44 K): 0.122
solubility (mole fraction) (in ethylbenzene, 314.77 K): 0.146
solubility (mole fraction) (in ethylbenzene, 319.53 K): 0.173
solubility (mole fraction) (in ethylbenzene, 323.75 K): 0.199
solubility (mole fraction) (in ethylbenzene, 327.93 K): 0.228
solubility (mole fraction) (in ethylbenzene, 331.75 K): 0.26
solubility (mole fraction) (in ethylbenzene, 335.44 K): 0.297
solubility (mole fraction) (in ethylbenzene, 339.42 K): 0.342
solubility (mole fraction) (in ethylbenzene, 343.86 K): 0.396
solubility (mole fraction) (in m-xylene, 301.65 K): 0.127
solubility (mole fraction) (in m-xylene, 307.74 K): 0.151
solubility (mole fraction) (in m-xylene, 312.76 K): 0.176
solubility (mole fraction) (in m-xylene, 317.36 K): 0.202
solubility (mole fraction) (in m-xylene, 321.64 K): 0.23
solubility (mole fraction) (in m-xylene, 325.94 K): 0.258
solubility (mole fraction) (in m-xylene, 329.73 K): 0.288
solubility (mole fraction) (in m-xylene, 333.64 K): 0.323
solubility (mole fraction) (in m-xylene, 337.61 K): 0.364
solubility (mole fraction) (in m-xylene, 341.55 K): 0.411
solubility (mole fraction) (in o-xylene, 302.95 K): 0.14
solubility (mole fraction) (in o-xylene, 309.24 K): 0.169
solubility (mole fraction) (in o-xylene, 314.25 K): 0.194
solubility (mole fraction) (in o-xylene, 318.34 K): 0.219
solubility (mole fraction) (in o-xylene, 322.45 K): 0.245
solubility (mole fraction) (in o-xylene, 326.77 K): 0.274
solubility (mole fraction) (in o-xylene, 330.54 K): 0.305
solubility (mole fraction) (in o-xylene, 334.23 K): 0.34
solubility (mole fraction) (in o-xylene, 338.32 K): 0.383
solubility (mole fraction) (in o-xylene, 342.43 K): 0.432
solubility (mole fraction) (in p-xylene, 302.5 K): 0.129
solubility (mole fraction) (in p-xylene, 309.53 K): 0.158
solubility (mole fraction) (in p-xylene, 314.64 K): 0.184
solubility (mole fraction) (in p-xylene, 318.96 K): 0.21
solubility (mole fraction) (in p-xylene, 323.35 K): 0.239
solubility (mole fraction) (in p-xylene, 327.68 K): 0.269
solubility (mole fraction) (in p-xylene, 332.02 K): 0.304
solubility (mole fraction) (in p-xylene, 335.89 K): 0.344
solubility (mole fraction) (in p-xylene, 340.1 K): 0.39
solubility (mole fraction) (in p-xylene, 344.24 K): 0.44
solubility (mole fraction) (in toluene, 303.44 K): 0.119
solubility (mole fraction) (in toluene, 308.84 K): 0.143
solubility (mole fraction) (in toluene, 313.63 K): 0.166
solubility (mole fraction) (in toluene, 317.65 K): 0.189
solubility (mole fraction) (in toluene, 321.85 K): 0.216
solubility (mole fraction) (in toluene, 325.99 K): 0.246
solubility (mole fraction) (in toluene, 330.04 K): 0.277
solubility (mole fraction) (in toluene, 333.86 K): 0.311
solubility (mole fraction) (in toluene, 337.8 K): 0.351
solubility (mole fraction) (in toluene, 342.59 K): 0.404
